Results reported in patent publication EP0624586B1, “Substituted pyrroles” (F. HOFFMANN-LA ROCHE AG, priority 1993, dated 1994).
Where a name gives a salt, the structure may show the parent alone.

Target: protein kinase C
Test: in vitro protein kinase C inhibition (32P incorporation from [γ-32P]ATP into histone)
Type: biochemical
Settings: protein kinase C isolated from rat brains; 10 µM [γ-32P]ATP, lysine-rich histone, 30°C, 10 minutes
Protocol: Reaction mixtures (100 µl) contain 10 µM [γ-^32P]ATP, 0.2 mg/ml (about 15 µM) lysine-rich histone, 0.5 mM CaCl2 and 40 µg/ml phosphatidylserine in 25 mM Tris HCl, 5 mM MgNO3 (pH 7.5) buffer. The enzyme protein kinase C is isolated from rat brains according to the method of Kikkawa et al., J. Biol. Chem. 257, 13341 (1982). The reaction is started by adding the enzyme, is run at 30°C for 10 minutes and is then stopped using 1 ml of ice-cold 10% trichloroacetic acid. Acid-precipitable protein is collected on glass fibre discs by filtration. These discs are then washed with 5% trichloroacetic acid containing 20 mM sodium pyrophosphate (in order to remove unreacted ATP), followed by ethanol. The discs are dried and counted. Counts associated with each disc are used as a measure of the incorporation of ^32P from [γ-^32P]ATP into histone. The degree of enzyme blockade at each test compound concentration is calculated from (Cpm incorporated + test compound + enzyme)/(Cpm incorporated - test compound + enzyme)x 100% [formula] The IC50 value is that concentration of test compound which reduces by 50% the protein kinase-induced incorporation of the ^32P under the assay conditions described above.

| IC50 [nM] | Compound |
| --- | --- |
| 5.5 | CC(C)[C@H](N)[C@H]1CCn2c(c(C3=C(c4cn(C)c5ccccc45)C(=O)NC3=O)c3ccccc32)C1 [Example 11, 3-[8(S)-[1(S)-amino-2-methylpropyl]-6,7,8,9-tetrahydropyrido[1,2-a]indol-10-yl-4-(1-methyl-3-indolyl)-1H-pyrrole-2,5-dione hydrochloride] |
| 3.3 | CCC(N)[C@H]1CCn2c(c(C3=C(c4cn(C)c5ccccc45)C(=O)NC3=O)c3ccccc32)C1 (single isomer, unassigned) [Example 10, 3-[8(S)-[1(R or S)-aminopropyl]-6,7,8,9-tetrahydropyrido[1,2-a]indol-10-yl]-4-(1-methyl-3-indolyl)-1H-pyrrole-2,5-dione hydrochloride] |
